The values that follow come from US20040220403A1, “1-(2-Methoxybenzyl)-3-benzhydrylpiperazines as tachykinin anatgonists” (priority 2001, published 2004).

One data set relates to Emesis in the Dog. As to the kind of experiment: Emesis in the Dog (apomorphine-induced retching and vomiting). Type of data set: in vivo. The following applies: adult female dogs; test compound i.v. at the dose of 1.0 mg/kg; 5 min later subcutaneous apomorphine (0.1 mg/0.5 ml/kg); observed for the next 60 min. On the procedure: Individually housed adult female dogs (8 to 15 kg) were given an i.v. injection of a solution containing a test compound. 5 Min later the emetic responses (retching and vomiting) were induced by administration of subcutaneous apomorphine (0.1 mg/0.5 ml/kg) and observed for the next 60 min. The timing and number of retches and vomits observed were recorded for each animal. An individual animal was tested with at least 10 days between experiments.

For orientation: melting point means the temperature of the solid-liquid transition. `COc1ccc(-n2nnnc2C(F)(F)F)cc1CN1C[C@@H]2CN(C(=O)COC(C)=O)CCN2[C@H](C(c2ccccc2)c2ccccc2)C1.Cl.Cl` had a melting point of 138 to 153 °C.

Regarding `COc1ccc(-n2nnnc2C(F)(F)F)cc1CN1C[C@@H]2CN(C(=O)C(C)(C)OC(C)=O)CCN2[C@H](C(c2ccccc2)c2ccccc2)C1.Cl.Cl`, the melting point was in the range of 143 to 148 °C.

Consider `COc1ccc(-n2nnnc2C(F)(F)F)cc1CN1C[C@@H]2CN(C(=O)C3CCCCC3)CCN2[C@H](C(c2ccccc2)c2ccccc2)C1.Cl.Cl`, for which the melting point was in the range of 169 to 174.5 °C.

The compound `COc1ccc(-n2nnnc2CC(F)(F)F)cc1CN1C[C@@H]2CN(C(=O)c3cccnc3)CCN2[C@H](C(c2ccccc2)c2ccccc2)C1.Cl.Cl.Cl` yielded a melting point of 197 to 200 °C.

The compound `COc1ccc(-n2nnnc2C(F)(F)F)cc1CN1C[C@@H]2CN(C(=O)CO)CCN2[C@H](C(c2ccccc2)c2ccccc2)C1.Cl.Cl` yielded a melting point of 140 to 159 °C.

As to `COc1ccc(-n2nnnc2C(F)(F)F)cc1CN1C[C@@H]2CN(C(=O)CCO)CCN2[C@H](C(c2ccccc2)c2ccccc2)C1.Cl.Cl`, the melting point lay in the range of 147 to 154 °C.

`COc1ccc(-n2nnnc2C(F)(F)F)cc1CN1C[C@@H]2CN(C(=O)[C@H](C)O)CCN2[C@H](C(c2ccccc2)c2ccccc2)C1.Cl.Cl` came in with a melting point of 150 to 158 °C.

Consider `COc1ccc(-n2nnnc2C(F)(F)F)cc1CN1C[C@@H]2CN(C(=O)C3CCCC3)CCN2[C@H](C(c2ccccc2)c2ccccc2)C1.Cl.Cl`, for which the melting point is 170 to 178 °C (dec.).

Compound `COCCC(=O)N1CCN2[C@H](CN(Cc3cc(-n4nnnc4C(F)(F)F)ccc3OC)C[C@H]2C(c2ccccc2)c2ccccc2)C1.Cl.Cl` yielded a melting point of 132 to 135 °C.

In turn, `COc1ccc(-n2nnnc2C(F)(F)F)cc1CN1C[C@@H]2CN(C(=O)CC(F)(F)F)CCN2[C@H](C(c2ccccc2)c2ccccc2)C1.Cl.Cl` yielded a melting point of 155 to 160 °C.

Compound `COc1ccc(-n2nnnc2C(F)(F)F)cc1CN1C[C@@H]2CN(C(=O)N(C)C)CCN2[C@H](C(c2ccccc2)c2ccccc2)C1.Cl.Cl` came in with a melting point of 158 to 164 °C.

`CNC(=O)N1CCN2[C@H](CN(Cc3cc(-n4nnnc4C(F)(F)F)ccc3OC)C[C@H]2C(c2ccccc2)c2ccccc2)C1.Cl.Cl` yielded a melting point of 160 to 170 °C.

Consider `COc1ccc(-n2nnnc2C(F)(F)F)cc1CN1C[C@@H]2CN(C(N)=O)CCN2[C@H](C(c2ccccc2)c2ccccc2)C1.Cl.Cl`, for which the melting point fell in the range of 165 to 190 °C.

Compound `COc1ccc(-n2nnnc2C(F)(F)F)cc1CN1C[C@@H]2CN(C3CCC3)CCN2[C@H](C(c2ccccc2)c2ccccc2)C1.Cl.Cl.Cl` had a melting point of 184 to 187 °C.

`COc1ccc(-n2nnnc2C(F)(F)F)cc1CN1C[C@@H]2CN(c3cccnc3)CCN2[C@H](C(c2ccccc2)c2ccccc2)C1.Cl.Cl.Cl` registered a melting point of 175 to 178 °C.

Compound `COc1ccc(-n2nnnc2C(F)(F)F)cc1CN1C[C@@H]2CN(S(N)(=O)=O)CCN2[C@H](C(c2ccccc2)c2ccccc2)C1.Cl.Cl` registered a melting point of 174 to 176 °C.

`COc1ccc(-n2nnnc2C(F)(F)F)cc1CN1C[C@@H]2CN(CC(C)=O)CCN2[C@H](C(c2ccccc2)c2ccccc2)C1.Cl.Cl.Cl` displayed a melting point of 175 to 179 °C.

For the compound `COc1ccc(-n2nnnc2C(F)(F)F)cc1CN1C[C@@H]2CN(C(C=O)C(=O)N(C)C)CCN2[C@H](C(c2ccccc2)c2ccccc2)C1.Cl.Cl` (stereo partly shown), the melting point fell in the range of 155 to 168 °C.

As for `COc1ccc(-n2nnnc2C(F)(F)F)cc1CN1C[C@@H]2CN(S(=O)(=O)N(C)C)CCN2[C@H](C(c2ccccc2)c2ccccc2)C1.Cl.Cl`, the melting point lay in the range of 148 to 152 °C.

As for `COc1ccc(-n2nnnc2C(F)(F)F)cc1CN1C[C@@H]2CN(S(=O)(=O)CS(C)(=O)=O)CCN2[C@H](C(c2ccccc2)c2ccccc2)C1.Cl.Cl`, the melting point was in the range of 162 to 168 °C.

`COc1ccc(-n2nnnc2C(F)(F)F)c(OC)c1CN1C[C@@H]2CN(C(=O)CO)CCN2[C@H](C(c2ccccc2)c2ccccc2)C1.Cl.Cl` came in with a melting point of 128 to 132 °C.

For the compound `COc1ccc(-n2nnnc2C(F)(F)F)cc1CN1C[C@@H]2CC(NC(=O)CO)CN2[C@H](C(c2ccccc2)c2ccccc2)C1.Cl.Cl` (stereo partly shown), the melting point lay within 155 to 159 °C.

For the compound `COc1ccc(-n2nnnc2C(F)(F)F)c(OC)c1CN1C[C@@H]2CN(C(=O)N(C)C)CCN2[C@H](C(c2ccccc2)c2ccccc2)C1.Cl.Cl` [52-(5), (6R,9aR)-6-Benzhydryl-8-[2,6-dimethoxy-3-[5-(trifluoromethyl)-1H-tetrazol-1-yl]benzyl]-N,N-dimethyloctahydro-2H-pyrazino[1,2-a]pyrazine-2-carboxamide dihydrochloride], the “inhibition rate of emesis in the dog” value in the data set with Emesis in the Dog is listed as 100%.

With `COc1ccc(-n2nnnc2C(F)(F)F)c(OC)c1CN1C[C@@H]2C[C@@H](NC(C)=O)CN2[C@H](C(c2ccccc2)c2ccccc2)C1.Cl.Cl` [52-(14), N-[(4R, 7R, 8aS)-4-Benzhydryl-2-[2,6-dimethoxy-3-[5-(trifluoromethyl)-1H-tetrazol-1-yl]benzyl]octahydropyrrolo-[1,2-a]pyrazin-7-yl]acetamide dihydrochloride], the “inhibition rate of emesis in the dog” value in the data set on Emesis in the Dog turned out to be 100%.

`COc1ccc(-n2nnnc2C(F)(F)F)c(OC)c1CN1CCN(Cc2cnn(C)c2)[C@H](C(c2ccccc2)c2ccccc2)C1.Cl.Cl` [57-(1), (2R)-2-Benzhydryl-4-[2,6-dimethoxy-3-[5-(trifluoromethyl)-1H-tetrazol-1-yl]benzyl]-1-[(1-methyl-1H-pyrazol-4-yl)methyl]piperazine dihydrochloride]: in the data set on Emesis in the Dog, the “inhibition rate of emesis in the dog” value amounted to 100%.
